Measured values taken from US20260176267A1, “PREPARATION OF IMIDAZOPYRIDINE AND IMIDAZOPYRIDAZINE DERIVATIVES AS NOVEL DIACYLGLYCERIDE O-ACYLTRANSFERASE 2 INHIBITORS” (Merck Sharp & Dohme LLC, priority 2022, published 2026).

Target: T1, human DGAT2 (hDGAT2) (Homo sapiens, UniProt Q96PD7)
T1 construct: made in house; host or cells: Sf-9 insect cells (baculovirus), membrane fraction
T1 sequence (Q96PD7 1-388): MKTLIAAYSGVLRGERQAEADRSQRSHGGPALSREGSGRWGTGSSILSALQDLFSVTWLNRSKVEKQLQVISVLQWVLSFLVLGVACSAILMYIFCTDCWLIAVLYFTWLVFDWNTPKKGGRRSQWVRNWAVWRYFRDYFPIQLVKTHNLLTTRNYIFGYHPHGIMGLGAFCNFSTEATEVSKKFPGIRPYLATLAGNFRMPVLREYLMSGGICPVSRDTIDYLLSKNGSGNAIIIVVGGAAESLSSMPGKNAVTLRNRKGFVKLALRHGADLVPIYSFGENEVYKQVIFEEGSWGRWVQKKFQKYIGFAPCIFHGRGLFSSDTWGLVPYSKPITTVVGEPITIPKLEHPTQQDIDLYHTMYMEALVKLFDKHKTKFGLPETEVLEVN
Assay: DGAT2 Enzymatic Activity Assay
Type: biochemical
Details: membrane prep of Sf-9 cells expressing hDGAT2; 13C18-triolein product by LC/MS/MS; 25 μM diolein, 5 μM 13C oleoyl-CoA, rt
How it was run: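 Membranes from Sf-9 cells expressing untagged human DGAT2 (baculovirus, 48 h) used as enzyme at rt. The product ^13C18-triolein is quantified by LC/MS/MS against a ^13C21-triolein internal standard. Percent inhibition is taken from high and low controls, and IC50 is derived.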

SMILES	IC50 [nM]
Cc1c(C(=O)NC2(C)CCS(=O)(=O)CC2)nc2ccc(Oc3ncc(C#N)cc3OCC(F)(F)F)cn12 [Example 149, 6-[[5-cyano-3-(2,2,2-trifluoroethoxy)-2-pyridyl]oxy]-3-methyl-N-(4-methyl-1,1-dioxo-thian-4-yl)imidazo[1,2-a]pyridine-2-carboxamide]	33
Cc1c(C(=O)NC2(C)CCS(=O)(=O)CC2)nc2ccc(Oc3ncc(S(C)(=O)=O)cc3OCC(F)(F)F)cn12 [Example 150, 3-methyl-N-(4-methyl-1,1-dioxo-thian-4-yl)-6-[[5-methylsulfonyl-3-(2,2,2-trifluoroethoxy)-2-pyridyl]oxy]imidazo[1,2-a]pyridine-2-carboxamide]	58
Cc1c(C(=O)NC2(C)CCS(=O)(=O)CC2)nc2ccc(Oc3ncc(C(=O)O)cc3OCC(F)(F)F)cn12 [Example 151, 6-[3-methyl-2-[(4-methyl-1,1-dioxo-thian-4-yl)carbamoyl]imidazo[1,2-a]pyridine-6-yl]oxy-5-(2,2,2-trifluoroethoxy)pyridine-3-carboxylic acid]	> 9990
Cc1c(C(=O)NC2(C)CS(=O)(=O)C2)nc2ccc(Oc3ncc(N(C)C)cc3OCC(F)(F)F)cn12 [Example 152, 6-[5-(dimethylamino)-3-(2,2,2-trifluoroethoxy)pyridine-2-yl]oxy-3-methyl-N-(3-methyl-1,1-dioxo-thietan-3-yl)imidazo[1,2-a]pyridin-1-ium-2-carboxamide]	63
CC1(NC(=O)c2cn3nc(Oc4ncc(Cl)cc4OCC(F)F)ccc3n2)CCS(=O)(=O)CC1 [Example 153, 6-((5-Chloro-3-(2,2-difluoroethoxy)pyridin-2-yl)oxy)-N-(4-methyl-1,1-dioxidotetrahydro-2H-thiopyran-4-yl)imidazo[1,2-b]pyridazine-2-carboxamide]	3.2
CC(F)(F)COc1cc(Cl)cnc1Oc1ccc2nc(C(=O)NC3(C)CCS(=O)(=O)CC3)cn2n1 [Example 154, 6-[[5-Chloro-3-(2,2-difluoropropoxy)-2-pyridyl]oxy]-N-(4-methyl-1,1-dioxo-thian-4-yl)imidazo[1,2-b]pyridazine-2-carboxamide]	154
CC1(NC(=O)c2cn3nc(Oc4ncc(F)cc4OCC4(F)CC4)ccc3n2)CCS(=O)(=O)CC1 [Example 155, 6-[[5-Fluoro-3-[(1-fluorocyclopropyl)methoxy]-2-pyridyl]oxy]-N-(4-methyl-1,1-dioxo-thian-4-yl)imidazo[1,2-b]pyridazine-2-carboxamide]	186
CC(F)(F)COc1cc(F)cnc1Oc1ccc2nc(C(=O)NC3(C)CCS(=O)(=O)CC3)cn2n1 [Example 156, 6-[[3-(2,2-Difluoropropoxy)-5-fluoro-2-pyridyl]oxy]-N-(4-methyl-1,1-dioxo-thian-4-yl)imidazo[1,2-b]pyridazine-2-carboxamide]	988
CC1(NC(=O)c2cn3nc(Oc4ncc(F)cc4OCC4CC4)ccc3n2)CCS(=O)(=O)CC1 [Example 157, 6-[[3-(Cyclopropylmethoxy)-5-fluoro-2-pyridyl]oxy]-N-(4-methyl-1,1-dioxo-thian-4-yl)imidazo[1,2-b]pyridazine-2-carboxamide]	18
CC1(NC(=O)c2cn3nc(Oc4ncc(F)cc4OC4CCC4)ccc3n2)CCS(=O)(=O)CC1 [Example 158, 6-[[3-(Cyclobutoxy)-5-fluoro-2-pyridyl]oxy]-N-(4-methyl-1,1-dioxo-thian-4-yl)imidazo[1,2-b]pyridazine-2-carboxamide]	590
CC1(NC(=O)c2cn3nc(Oc4ncc(Cl)cc4OCC(F)(F)F)ccc3n2)CCS(=O)(=O)CC1 [Example 159, 6-[[5-Chloro-3-(2,2,2-trifluoroethoxy)-2-pyridyl]oxy]-N-(4-methyl-1,1-dioxo-thian-4-yl)imidazo[1,2-b]pyridazine-2-carboxamide]	211
CC1(NC(=O)c2cn3nc(Oc4ncc(F)cc4OCC(F)F)ccc3n2)CCS(=O)(=O)CC1 [Example 160, 6-[[3-(2,2-Difluoroethoxy)-5-fluoro-2-pyridyl]oxy]-N-(4-methyl-1,1-dioxo-thian-4-yl)imidazo[1,2-b]pyridazine-2-carboxamide]	3.9
O=C(N[C@H]1CCCC(F)(F)[C@@H]1O)c1cn2nc(Oc3ncc(Cl)cc3OCC(F)(F)F)ccc2n1 [Example 161, 6-((5-chloro-3-(2,2,2-trifluoroethoxy)pyridin-2-yl)oxy)-N-((1S,2R)-3,3-difluoro-2-hydroxycyclohexyl)imidazo[1,2-b]pyridazine-2-carboxamide]	37
CC1(NC(=O)c2cn3nc(Oc4ncc(Cl)cc4OCC(F)(F)F)ccc3n2)CS(=O)(=O)C1 [Example 162, 6-[[5-chloro-3-(2,2,2-trifluoroethoxy)-2-pyridyl]oxy]-N-(3-methyl-1,1-dioxo-thietan-3-yl)imidazo[1,2-b]pyridazine-2-carboxamide]	474
CS(=O)(=O)CC1(NC(=O)c2cn3nc(Oc4ncc(Cl)cc4OCC(F)F)ccc3n2)CCC1 [Example 163, 6-[[5-Chloro-3-(2,2-difluoroethoxy)-2-pyridyl]oxy]-N-[1-(methylsulfonylmethyl)cyclobutyl] imidazo[1,2-b]pyridazine-2-carboxamide]	207
CC1(NC(=O)c2cn3nc(Oc4ncc(F)cc4OCC(F)(F)F)ccc3n2)CCS(=O)(=O)CC1 [Example 164, 6-[[5-Fluoro-3-(2,2,2-trifluoroethoxy)-2-pyridyl]oxy]-N-(4-methyl-1,1-dioxo-thian-4-yl)imidazo[1,2-b]pyridazine-2-carboxamide]	16
CC1(NC(=O)c2cn3nc(Oc4nccnc4OCC(F)(F)F)ccc3n2)CCS(=O)(=O)CC1 [Example 165, N-(4-Methyl-1,1-dioxo-thian-4-yl)-6-[3-(2,2,2-trifluoroethoxy)pyrazin-2-yl]oxy-imidazo[1,2-b]pyridazine-2-carboxamide]	901
Cc1c(C(=O)NC2(C)CCS(=O)(=O)CC2)nc2ccc(Oc3ncc(Cl)cc3OCC(F)F)nn12 [Example 166, 6-((5-Chloro-3-(2,2-difluoroethoxy)pyridin-2-yl)oxy)-3-methyl-N-(4-methyl-1,1-dioxidotetrahydro-2H-thiopyran-4-yl)imidazo[1,2-b]pyridazine-2-carboxamide]	6.8
Cc1c(C(=O)NC2(C)CS(=O)(=O)C2)nc2ccc(Oc3ncc(Cl)cc3OCC(F)F)nn12 [Example 167, 6-((5-chloro-3-(2,2-difluoroethoxy)pyridin-2-yl)oxy)-3-methyl-N-(3-methyl-1,1-dioxidothietan-3-yl)imidazo[1,2-b]pyridazine-2-carboxamide]	11
Cc1cc2nc(C(=O)NC3(C)CCS(=O)(=O)CC3)cn2nc1Oc1ncc(Cl)cc1OCC(F)F [Example 168, 6-((5-Chloro-3-(2,2-difluoroethoxy)pyridin-2-yl)oxy)-7-methyl-N-(4-methyl-1,1-dioxidotetrahydro-2H-thiopyran-4-yl)imidazo[1,2-b]pyridazine-2-carboxamide]	1
Cc1cc2nc(C(=O)NC3(C)CS(=O)(=O)C3)cn2nc1Oc1ncc(Cl)cc1OCC(F)F [Example 169, 6-[[5-chloro-3-(2,2-difluoroethoxy)-2-pyridyl]oxy]-7-methyl-N-(3-methyl-1,1-dioxo-thietan-3-yl)imidazo[1,2-b]pyridazine-2-carboxamide]	121
Cc1cc2nc(C(=O)NC3(C)CCS(=O)(=O)CC3)c(C)n2nc1Oc1ncc(F)cc1OCC(F)(F)F [Example 170, 6-[[5-fluoro-3-(2,2,2-trifluoroethoxy)-2-pyridyl]oxy]-3,7-dimethyl-N-(4-methyl-1,1-dioxo-thian-4-yl)imidazo[1,2-b]pyridazine-2-carboxamide]	15
Cc1cc2nc(C(=O)NC3(C)CCS(=O)(=O)CC3)c(C)n2nc1Oc1ncc(F)cc1OCC(F)F [Example 171, 6-[[3-(2,2-difluoroethoxy)-5-fluoro-2-pyridyl]oxy]-3,7-dimethyl-N-(4-methyl-1,1-dioxo-thian-4-yl)imidazo[1,2-b]pyridazine-2-carboxamide]	1.3
Cc1cc(Oc2ncc(Cl)cc2OCC(F)F)nn2cc(C(=O)NC3(C)CS(=O)(=O)C3)nc12 [Example 172, 6-[[5-chloro-3-(2,2-difluoroethoxy)-2-pyridyl]oxy]-8-methyl-N-(3-methyl-1,1-dioxo-thietan-3-yl)imidazo[1,2-b]pyridazine-2-carboxamide]	30
Cc1cc(Oc2ncc(Cl)cc2OCC(F)F)nn2cc(C(=O)NC3(C)CCS(=O)(=O)CC3)nc12 [Example 173, 6-[[5-chloro-3-(2,2-difluoroethoxy)-2-pyridyl]oxy]-8-methyl-N-(4-methyl-1,1-dioxo-thian-4-yl)imidazo[1,2-b]pyridazine-2-carboxamide]	11
Cc1cc(Oc2ncc(F)cc2OCC(F)F)nn2cc(C(=O)N[C@H]3CCCC(F)(F)[C@@H]3O)nc12 [Example 174, N-((1S,2R)-3,3-difluoro-2-hydroxycyclohexyl)-6-((3-(2,2-difluoroethoxy)-5-fluoropyridin-2-yl)oxy)-8-methylimidazo[1,2-b]pyridazine-2-carboxamide]	14
CC1(NC(=O)c2nc3cc(Cl)c(Oc4ncc(Cl)cc4OCC(F)F)nn3c2Cl)CS(=O)(=O)C1 [Example 175, 3,7-dichloro-6-[[5-chloro-3-(2,2-difluoroethoxy)-2-pyridyl]oxy]-N-(3-methyl-1,1-dioxo-thietan-3-yl)imidazo[1,2-b]pyridazine-2-carboxamide]	0.4
